# Test results taken from US11773368B2, “Culture method for differentiating primordial germ cells into functionally mature oocytes” (TOKYO UNIVERSITY OF AGRICULTURE, priority 2015, dated 2023).
# How the values were obtained:
# Format in all cases: cell-based, mouse
# [1] = system: ovaries cultured for 17 days; assay: Histological analysis of ovary obtained by in vitro culture (H&E, laminin immunofluorescence)
# Experimental: The ovaries cultured for 17 days in (i) FBS group or (v) FBS/10 μM ICI group and the ovaries from female mouse at 10 days after birth were processed for hematoxylin-eosin staining and laminin immunofluorescence staining.
# Concretely, the ovaries were fixed for 4 hours at room temperature in 1% paraformaldehyde (PFA)/0.1% glutaraldehyde in 0.05 M phosphate buffer. For H&E staining, the ovaries were embedded in paraffin blocks after a routine protocol, and 4-μm-thick serial sections were prepared. After H&E staining, sections were observed under an IX71 microscope (Olympus). For laminin immunofluorescence staining, ovaries were cut into four to eight pieces, and the tissue sections were incubated for 3 days at 4° C. with an anti-laminin rabbit polyclonal antibody (Abcam) at a dilution of 1:100. Then the tissue sections of the ovaries were incubated for 3 days at 4° C. with an Alexa Fluor 488-conjugated goat anti-rabbit IgG at a dilution of 1:500 (Molecular Probes, Thermo Fisher Scientific Inc.). The obtained tissue sections of the ovaries were further processed for 4′,6-diamidino-2-phenylindole (DAPI; Life Technologies) staining. The tissue sections of the ovaries were observed under Zeiss LSM 710 confocal microscope.
# [2] = system: cumulus-oocyte complexes (COCs); assay: In vitro maturation to egg
# Experimental: The cumulus-oocyte complexes (COCs) were collected from the secondary follicles obtained by “3. In vitro growth culture of secondary follicle” described above. Then, COCs were cultured with α-MEM containing 5% FBS, 0.1 IU/mL FSH, 1.2 IU/mL chorionic gonadotropin (Gonatropin, ASKA Pharmaceutical), and […] (Gibco, Thermo Fisher Scientific Inc.) for 17 hours. Control COCs were collected from adult female mice 44 hours after the injection with equine CG (Serotropin; ASKA Pharmaceutical). The obtained COCs obtained from the adult female mice, in vivo-derived COCs, were cultured with α-MEM containing 5% FBS, 0.1 IU/mL FSH, 1.2 IU/mL chorionic gonadotropin, and 4 ng/mL epidermal growth factor in the same way to in vitro-derived COCs. As a result of in vitro maturation, in (ii) SPS group, (iv) FBS/SPS group, and (v) FBS/ICI group, 77 to 95% oocytes released the first polar body after 17 hours and became MII oocytes (FIGS. 11b and c).
# [3] = system: secondary follicles from in vitro cultured gonads; assay: In vitro growth culture of secondary follicle
# Experimental: The secondary follicles obtained by the in vitro organ culture of the gonads from the fetuses was processed for in vitro growth culture. […] In this example, the culture was performed with the medium supplemented with PVP which is the high-molecular-weight compound. Furthermore, the inventor found out that oocytes can develop to functional eggs by dissociating a part of the cell layers between a granulosa cell layer and a thecal cell layer which constitute a secondary follicle. Accordingly, in this example, the in vitro culture of the follicle includes a step of partial dissociation between the granulosa cell layer and the thecal cell layer. More concretely, the in vitro culture of the follicle was performed as follows.
# After the culture of “1. In vitro organ culture of gonad” for 17 days mentioned above, the cultured gonads (ovaries) were transferred to L15 medium and the secondary follicles formed in the gonads were isolated from the gonads, using a fine Tungsten needle. The secondary follicles were further cultured in α-MEM supplemented with 2% (w/v) PVP, 5% FBS, and 0.1 IU/mL FSH (FOLLISTIM Injection 50; MSD). The secondary follicles were cultured on a Millicell membrane (0.4-μm pore size, 27-mm diameter; Merck Millipore) in a 35-mm culture dish (Falcon, Corning). On day 3 of the culture, the secondary follicles were transferred to 0.1% collagenase type I (Worthington Biochemicals) containing L15 medium and treated for 15 min at 37° C. Then, the theca cell layer of the secondary follicles was removed by pipetting with a pulled fine-glass capillary. Fifty to 60 secondary follicles were cultured on Transwell®-COL or Millicell membranes for another 9 to 13 days at 37° C. in the medium under 5% CO2 and 95% air. The inside and outside of the membrane insert were filled with 1 mL and 2 mL medium, respectively. Approximately half the medium in each well was replaced with fresh medium every other day.
# [4] = FBS/1 μM ICI group (ICI day 5-11)
# [5] = FBS/1 μM ICI group (ICI day 5-11), 19 cultured gonads
# [6] = FBS/5 μM ICI group (ICI day 5-11)
# [7] = FBS/5 μM ICI group (ICI day 5-11), 6 cultured gonads
# [8] = FBS/10 μM ICI group (ICI day 5-11)
# [9] = FBS/10 μM ICI group (ICI day 5-11), 6 cultured gonads
# [10] = Vitrification FBS/1 μM ICI (vitrified-warmed gonads)
# [11] = Vitrification FBS/1 μM ICI (vitrified-warmed gonads), 4 cultured gonads
structure (smiles),measurement,setting,value
"C[C@]12CC[C@@H]3c4ccc(O)cc4C[C@@H](CCCCCCCCC[S+]([O-])CCCC(F)(F)C(F)(F)F)[C@H]3[C@@H]1CC[C@@H]2O (stereo partly drawn) [ICI, 7α, 17β-[9-([4,4,5,5,5-pentafluoropentyl]sulfinyl)nonyl]estra-1,3,5(10)-triene-3,17-diol]",laminin localization (immunofluorescence),"[1]; (v) FBS/10 μM ICI group, day 17",laminin is circularly localized around the follicle
same,multioocyte follicle (multiple oocytes in one follicle),"[1]; (v) FBS/ICI group, FIG. 5b",very few
same,"No. of oocytes matured into MII, proportion to the number of collected follicles",[2]; [4],50.1%
same,No. of oocytes matured into MII,[2]; [5],321
same,"No. of oocytes matured into MII, proportion to the number of collected follicles",[2]; [6],53.8%
same,No. of oocytes matured into MII,[2]; [7],168
same,"No. of oocytes matured into MII, proportion to the number of collected follicles",[2]; [8],50.7%
same,No. of oocytes matured into MII,[2]; [9],256
same,"No. of oocytes matured into MII, proportion to the number of collected follicles",[2]; [10],64.9%
same,No. of oocytes matured into MII,[2]; [11],37
same,"No. of collected COCs, proportion to the number of collected follicles",[3]; [4],53.0%
same,No. of collected COCs,[3]; [5],340
same,"No. of collected COCs, proportion to the number of collected follicles",[3]; [6],57.1%
same,No. of collected COCs,[3]; [7],178
same,"No. of collected COCs, proportion to the number of collected follicles",[3]; [8],55.6%
same,No. of collected COCs,[3]; [9],281
same,average diameter of the oocytes obtained by the in vitro culture,"[3]; FBS/10 μM ICI group, n=85",80.0 μm
same,"No. of collected COCs, proportion to the number of collected follicles",[3]; [10],68.4%
same,No. of collected COCs,[3]; [11],39
